From patent US5604226A, “Pyridazinone derivatives, processes for production thereof and use thereof” (Nihon Nohyaku Co., Ltd., priority 1993, dated 1997) come the findings set out here.

In test [1] the test system is thrombocytopenia in mice (collagen-induced, platelet count). Kind of test: Activity of preventing thrombocytopenia in mice, collagen i.v. (Experiment 3). It counts as in vivo, male ddY mice. The settings on record: Mus musculus, 3.0 mg/kg oral, 1 hour before collagen 0.5 mg/kg i.v., * p = 5%, ** p = 1%, *** p = 0.1%, read-out: Average Inhibition Rate (platelet count; normal mouse 100, control mouse 0). Here is the method: Activity of preventing thrombocytopenia in mice:
Collagen (Holm Co.) diluted with physiological saline was intravenously given through the vein to male ddY mice of 6 weeks old, weighing 28-31 g, which had been fasted for 4-5 hours, in a dose of 0.5 mg/kg. Five minutes after, blood was collected from the lower thigh vein under pentobarbital anesthesia through a plastic syringe treated with heparin containing 3.8% sodium citrate. The drug was orally given an hour before the collagen administration. The platelet count was measured with Sysmex E-4000. The inhibition activity is shown in terms of percentage of the platelet count when the platelet count of normal mouse was made 100 and the platelet count of control mouse was made 0.

Test [2] concerns ADP-inducing platelet aggregation. Kind of test: Rabbit exo-vivo test, ADP-inducing platelet aggregation after oral administration (Experiment 2). It counts as in vivo, Japanese white rabbits. The method, then:
Japanese white rabbits weighing 3.0-4.0 kg were fasted for 18 hours. A drug suspension in 2% gum arabic aqueous solution was orally given to the animal in a definite dose. Blood was collected 1 and 4 hours after. PRP was prepared in a manner similar to Experiment 1 and ADP-inducing platelet aggregation function was determined. An inhibition rate was calculated based on an aggregation rate of ADP prior to administration of the compound.

Test [3] concerns Platelet aggregation (ADP, rabbit platelet rich plasma). Kind of test: Platelet aggregation inhibition in rabbit PRP, ADP-induced, Born's turbidimetry (Experiment 1). Type of test: cell-based. Conditions: Oryctolagus cuniculus, 0.05 h, ADP 2 to 4 μM, 3 min incubation, read-out: Aggregation Inhibition Rate. Here is the method: Blood was collected from the ear vein of rabbit, together with 1/10 volume sodium citrate. Centrifugation at 1,200 rpm for 10 minutes gave the supernatant which was made platelet rich plasma (PRP). The blood was further centrifuged at 3,000 rpm for 10 minutes to give platelet poor plasma (PPP). The platelet count of PRP was adjusted to 300,000/μl with PPP, which was provided for the test. Platelet aggregation was determined with aggregometer (HEMATRACERVI, Niko Bioscience Co.) based on Born's turbidimetry. That is, 200 μl of PRP was charged in a cell and 1 μl of a drug solution dissolved in dimethylsulfoxide was added thereto. After incubation for 3 minutes, ADP was added in a concentration of 2 to 4 μM to cause aggregation. Change in transmittance in the cell was then monitored. The results are shown in Table 2, in terms of aggregation inhibition rate which was determined by comparing a transmittance of control with that obtained at the maximum aggregation on an aggregation curve when the transmittance of PRP was made 0% and the transmittance of PPP was made 100%.

For `COc1ccc(CNc2c(OCCCc3ccccc3)n[nH]c(=O)c2Br)cc1OC` [C, reference compound], the inhibition in vivo at 3 mg/kg in test [1] was determined as 27.4%. The “Average Inhibition Rate” value in test [2] (3 mg/kg oral, 1 Hour) was 20%; in test [2] (3 mg/kg oral, 4 Hours), 23%; in test [2] (30 mg/kg oral, 1 Hour), 36%; in test [2] (30 mg/kg oral, 4 Hours) it was 35%.
Turning to `COc1ccc(CNc2c(OCC[S+]([O-])c3ccccc3)n[nH]c(=O)c2Br)cc1OC` (stereo not drawn) [Compound 8, 4-bromo-5-(3,4-dimethoxyphenylmethylamino)-6-[2-(phenylsulfinyl)ethyloxy]-3(2H)-pyridazinone], in test [3] (10^-6 g/ml), the inhibition at 1 µg/mL came out at 100%. In addition, the inhibition at 0.1 µg/mL in test [3] (10^-7 g/ml) came to 82%. In addition, the inhibition in vivo at 3 mg/kg in test [1] amounted to 45%. In addition, the “Average Inhibition Rate” value in test [2] (3 mg/kg oral, 1 Hour) was found to be 48%; in test [2] (3 mg/kg oral, 4 Hours), 23%; in test [2] (30 mg/kg oral, 1 Hour), 72%; in test [2] (30 mg/kg oral, 4 Hours), 70%.

For orientation: inhibition means the relative decrease from the control value, in per cent.
